Data from ChEMBL document CHEMBL3639359, “Compounds as cannabinoid receptor ligands” (2014).
pKi: −log10 of the molar value.

Key:
Cannabinoid receptor 2 [1] = target: T1, Cannabinoid receptor 2 (Rattus norvegicus, UniProt Q9QZN9); assay: Radioligand Binding Assay: HEK293 cells stably expressing rat CB2 receptors were grown until a confluent monolayer was formed. Briefly, the cells were harvested and homogenized in TE buffer (50 mM Tris-HCl, 1 mM MgCl2, and 1 mM EDTA) using a polytron for 2x 10 second bursts in the presence of protease inhibitors, followed by centrifugation at 45,000x g for 20 minutes. The final membrane pellet was re-homogenized in storage buffer (50 mM Tris-HCl, 1 mM MgCl2, and 1 mM EDTA and 10% sucrose) and frozen at -78 C. until used. Saturation binding reactions were initiated by the addition of membrane preparation (protein concentration of 20 ug/well for rat CB2) into wells of a deep well plate containing [3H]CP 55,940 (120 Ci/mmol, a nonselective CB agonist commercially available from Tocris) in assay buffer (50 mM Tris, 2.5 mM EDTA, 5 mM MgCl2, and 0.5 mg/mL fatty acid free BSA, pH 7.4). After 45 min incubation at 30u C., binding reaction was terminated by the addition of 300 ul/well of cold assay buffer.; assay type: cell membranes
T1 sequence (Q9QZN9 whole entry): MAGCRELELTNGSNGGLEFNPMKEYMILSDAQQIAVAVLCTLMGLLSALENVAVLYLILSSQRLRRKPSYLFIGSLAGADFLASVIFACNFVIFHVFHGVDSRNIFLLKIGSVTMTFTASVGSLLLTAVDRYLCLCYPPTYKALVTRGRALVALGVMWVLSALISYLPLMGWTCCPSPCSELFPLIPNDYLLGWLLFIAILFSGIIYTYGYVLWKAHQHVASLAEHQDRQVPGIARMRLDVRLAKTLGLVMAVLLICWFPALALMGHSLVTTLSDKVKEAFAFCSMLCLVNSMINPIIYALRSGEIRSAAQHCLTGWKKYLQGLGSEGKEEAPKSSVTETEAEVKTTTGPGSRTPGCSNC

Cannabinoid receptor 2 [2] = target: Cannabinoid receptor 2 (Homo sapiens, UniProt P34972); assay: Radioligand Binding Assay: HEK293 cells stably expressing human CB2 receptors were grown until a confluent monolayer was formed. Briefly, the cells were harvested and homogenized in TE buffer (50 mM Tris-HCl, 1 mM MgCl2, and 1 mM EDTA) using a polytron for 2x 10 second bursts in the presence of protease inhibitors, followed by centrifugation at 45,000xg for 20 minutes. The final membrane pellet was re-homogenized in storage buffer (50 mM Tris-HCl, 1 mM MgCl2, and 1 mM EDTA and 10% sucrose) and frozen at -78 C. until used. Saturation binding reactions were initiated by the addition of membrane preparation (protein concentration of 5 ug/well for human CB2) into wells of a deep well plate containing [3H]CP 55,940 (120 Ci/mmol, a nonselective CB agonist commercially available from Tocris) in assay buffer (50 mM Tris, 2.5 mM EDTA, 5 mM MgCl2, and 0.5 mg/mL fatty acid free BSA, pH 7.4). After 90 min incubation at 30 C., binding reaction was terminated by the addition of 300 uL/well of cold assay buffer.; assay type: cell membranes
Cannabinoid receptor 2 (Homo sapiens, UniProt P34972), sequence (P34972 whole entry): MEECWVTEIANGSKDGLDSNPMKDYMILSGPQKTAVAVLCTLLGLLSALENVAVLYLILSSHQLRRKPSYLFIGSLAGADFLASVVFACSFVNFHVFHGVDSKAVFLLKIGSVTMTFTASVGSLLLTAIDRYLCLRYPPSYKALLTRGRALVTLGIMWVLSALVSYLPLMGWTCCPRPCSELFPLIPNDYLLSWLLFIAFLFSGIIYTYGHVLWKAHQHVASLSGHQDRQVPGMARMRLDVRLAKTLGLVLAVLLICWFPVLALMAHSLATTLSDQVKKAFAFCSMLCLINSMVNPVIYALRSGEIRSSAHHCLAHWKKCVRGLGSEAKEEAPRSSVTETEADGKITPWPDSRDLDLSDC

Q: How did the pKi (Cannabinoid receptor 2 [1]) turn out when `CCCCn1nc(C(C)(C)C)s/c1=N\C(=O)c1cc(C(F)(F)F)ccc1ON=C(C)C` was run?
A: 8.28

Q: What about the pKi (Cannabinoid receptor 2 [2]) of the same compound?
A: 7.92
